Reference: article PMC6905855, “Agonist-specific voltage-dependent gating of lysosomal two-pore Na^+ channels” (eLife, 2019)
“And” between values parts separate entries of the source, which are not always exact repeats. Equal entries are not always repeated.

Target: T1, surface-expressing mutant TPC2 channel (TPC2^LL/AA) in HEK293 cells (Homo sapiens, UniProt Q8NHX9, L11A/L12A)
T1 construct: expressed in transfected cells; host or cells: HEK293
Test: Whole-cell recordings of ITPC2-LL/AA
Format: cell-based
Settings: for voltage-dependent inactivation of ITPC2, I1s / 0s: @-140mV, whole-cell; for time course of LyNa-VA1.2-induced ITPC2: wc; for current density: whole cell recordings
Procedure, shortened: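 HEK293 cells transiently expressing EGFP-tagged human TPC2 L11A/L12A, a plasma-membrane-targeted mutant, recorded 24–36 h post-transfection. Whole-cell patch clamp with fast perfusion of bath solutions; currents digitized at 10 kHz and filtered at 2 kHz.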

T1 sequence (Q8NHX9 whole entry L11A/L12A): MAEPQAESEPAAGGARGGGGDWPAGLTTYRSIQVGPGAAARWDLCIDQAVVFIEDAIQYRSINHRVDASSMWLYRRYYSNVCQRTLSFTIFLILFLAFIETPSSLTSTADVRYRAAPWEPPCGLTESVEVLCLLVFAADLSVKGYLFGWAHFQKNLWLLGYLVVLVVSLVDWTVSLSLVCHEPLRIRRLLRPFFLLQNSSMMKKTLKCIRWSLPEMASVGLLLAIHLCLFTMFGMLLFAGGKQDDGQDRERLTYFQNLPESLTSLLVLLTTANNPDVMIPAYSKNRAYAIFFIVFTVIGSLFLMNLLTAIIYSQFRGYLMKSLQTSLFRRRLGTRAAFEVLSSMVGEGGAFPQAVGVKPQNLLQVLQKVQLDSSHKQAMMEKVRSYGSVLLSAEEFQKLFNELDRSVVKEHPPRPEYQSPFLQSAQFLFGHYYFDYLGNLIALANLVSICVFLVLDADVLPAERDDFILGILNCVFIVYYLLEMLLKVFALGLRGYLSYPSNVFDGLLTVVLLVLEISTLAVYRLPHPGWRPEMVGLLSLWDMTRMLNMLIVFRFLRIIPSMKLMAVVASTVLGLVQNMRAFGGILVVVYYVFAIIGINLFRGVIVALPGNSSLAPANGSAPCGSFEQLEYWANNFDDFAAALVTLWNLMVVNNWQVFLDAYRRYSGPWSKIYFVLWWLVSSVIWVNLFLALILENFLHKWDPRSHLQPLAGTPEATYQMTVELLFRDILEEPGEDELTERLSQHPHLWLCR

SMILES: CNCCCN1c2ccccc2CCc2ccccc21 [LyNa-VA1.2, Desipramine]
- voltage-dependent inactivation of ITPC2, I1s / 0s (individual recordings): 0.09192 and 0.1098 and 0.1458
- voltage-dependent inactivation of ITPC2, I1s / 0s (mean): 0.1158
- activation of whole-cell ITPC2-LL/AA (in words) (bath application, symmetric Na^+, 100 µM where stated): ITPC2 was evoked
- time course of LyNa-VA1.2-induced ITPC2 (time 0 s): -0.02373
- time course of LyNa-VA1.2-induced ITPC2 (time 2 s): -0.02853
- time course of LyNa-VA1.2-induced ITPC2 (time 4 s): -0.024
- time course of LyNa-VA1.2-induced ITPC2 (time 6 s): -0.02111
- time course of LyNa-VA1.2-induced ITPC2 (time 8 s): -0.02193
- time course of LyNa-VA1.2-induced ITPC2 (time 10 s): -0.01987
- time course of LyNa-VA1.2-induced ITPC2 (time 12 s): -0.0181
- time course of LyNa-VA1.2-induced ITPC2 (time 14 s): -0.01154
- time course of LyNa-VA1.2-induced ITPC2 (time 16 s): -7.79E-04
- time course of LyNa-VA1.2-induced ITPC2 (time 18 s): -0.01449
- time course of LyNa-VA1.2-induced ITPC2 (time 20 s): -0.01685
- time course of LyNa-VA1.2-induced ITPC2 (time 22 s): -0.0503
- time course of LyNa-VA1.2-induced ITPC2 (time 24 s): -0.06829
- time course of LyNa-VA1.2-induced ITPC2 (time 26 s): -0.1356
- time course of LyNa-VA1.2-induced ITPC2 (time 28 s): -0.1797
- time course of LyNa-VA1.2-induced ITPC2 (time 30 s): -0.2005
- time course of LyNa-VA1.2-induced ITPC2 (time 32 s): -0.2805
- time course of LyNa-VA1.2-induced ITPC2 (time 34 s): -0.3854
- time course of LyNa-VA1.2-induced ITPC2 (time 36 s): -0.4381
- time course of LyNa-VA1.2-induced ITPC2 (time 38 s): -0.4224
- time course of LyNa-VA1.2-induced ITPC2 (time 40 s): -0.5193
- time course of LyNa-VA1.2-induced ITPC2 (time 42 s): -0.5569
- time course of LyNa-VA1.2-induced ITPC2 (time 44 s): -0.6324
- time course of LyNa-VA1.2-induced ITPC2 (time 46 s): -0.7257
- time course of LyNa-VA1.2-induced ITPC2 (time 48 s): -0.7464
- time course of LyNa-VA1.2-induced ITPC2 (time 50 s): -0.8325
- time course of LyNa-VA1.2-induced ITPC2 (time 52 s): -0.8418
- time course of LyNa-VA1.2-induced ITPC2 (time 54 s): -0.8932
- time course of LyNa-VA1.2-induced ITPC2 (time 56 s): -0.9277
- time course of LyNa-VA1.2-induced ITPC2 (time 58 s): -0.9561
- time course of LyNa-VA1.2-induced ITPC2 (time 60 s): -0.9666
- time course of LyNa-VA1.2-induced ITPC2 (time 62 s): -0.9966
- time course of LyNa-VA1.2-induced ITPC2 (time 64 s): -0.9748
- time course of LyNa-VA1.2-induced ITPC2 (time 66 s): -1.0004
- current density (5 µM, individual recordings): 10.3471 pA/pF and 4.752 pA/pF and 3.368 pA/pF and 5.887 pA/pF
- current density (10 µM, individual recordings): 14.5785 pA/pF and 6.451 pA/pF and 2.849 pA/pF and 8.548 pA/pF
- current density (20 µM, individual recordings): 24.0331 pA/pF and 8.699 pA/pF and 7.085 pA/pF and 17.3826 pA/pF
- current density (50 µM, individual recordings): 89.8595 pA/pF and 25.0088 pA/pF and 25.4245 pA/pF and 76.3478 pA/pF
- current density (100 µM, individual recordings): 240.859 pA/pF and 94.6372 pA/pF and 96.3302 pA/pF and 256.8 pA/pF
- current density (200 µM, individual recordings): 297.455 pA/pF and 239.381 pA/pF and 181.434 pA/pF and 429.652 pA/pF
- current density (400 µM, individual recordings): 245.487 pA/pF and 193.066 pA/pF and 464.052 pA/pF
